# Source: US20120165319A1, “INHIBITORS OF INTERLEUKIN-1 BETA CONVERTING ENZYME” (VERTEX PHARMACEUTICALS INCORPORATED, priority 1995, published 2012)
# Where two headings read alike, the source gives them in different places.
# Tests used:
# ICE = target: T1, ICE (Homo sapiens, UniProt P29466); experiment: Enzyme assay with UV-visible substrate (visible ICE assay, Succinyl-Tyr-Val-Ala-Asp-pNitroanilide); assay type: biochemical; conditions: Table 5
# T1 sequence (P29466 120-297 limits assumed): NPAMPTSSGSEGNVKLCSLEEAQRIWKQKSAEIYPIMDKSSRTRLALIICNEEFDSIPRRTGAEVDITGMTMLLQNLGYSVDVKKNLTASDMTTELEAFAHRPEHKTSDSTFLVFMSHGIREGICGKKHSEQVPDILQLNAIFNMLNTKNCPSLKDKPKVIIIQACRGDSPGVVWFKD
# T1 sequence (P29466 317-404 limits assumed): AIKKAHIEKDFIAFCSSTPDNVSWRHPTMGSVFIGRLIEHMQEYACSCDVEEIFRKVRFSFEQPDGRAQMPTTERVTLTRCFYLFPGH
# Procedure, shortened: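 ICE preincubated with inhibitor in DMSO for 15 min at room temperature, then Suc-Tyr-Val-Ala-Asp-pNA added. pNA release read at 405-603 nm for 20 min at 37 °C, rate from linear fit in mOD/min. Ki and inhibition mode from fits of rates at varying inhibitor concentrations to standard kinetic equations.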
# [1] = tested on: IL-1β, human peripheral blood mononuclear cells (PBMC); experiment: PBMC cell assay: IL-1β assay with human PBMC or enriched adherent mononuclear cells, LPS-stimulated; assay type: cell-based; conditions: * = values obtained upon reassay
# Procedure, shortened: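 Buffy-coat human PBMC at 6×10^6 cells/ml, or adherent monocytes enriched by 1 h adherence (2.5−3.0×10^5 cells/well), are given 5–6 compound dilutions bracketing the ICE Ki (final DMSO 0.1%) plus LPS at a final 5 ng/ml. They are incubated 16–18 hr at 37 °C, 5% CO2, and supernatant mature IL-1β is measured by ELISA, with duplicate cultures and duplicate ELISAs.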
# IL-1β, human whole blood = experiment: Whole blood assay for IL-1β production; assay type: cell-based; conditions: * = values obtained upon reassay, read-out: Whole human blood IC50
# Procedure: The whole blood assay is a simple method for measuring the production of IL-1b (or other cytokines) and the activity of potential inhibitors. The complexity of this assay system, with its full complement of lymphoid and inflammatory cell types, spectrum of plasma proteins and red blood cells is an ideal in vitro representation of human in vivo physiologic conditions.
# Pyrogen-free syringes (˜30 cc) Pyrogen-free sterile vacuum tubes containing lyophilized Na2EDTA (4.5 mg/10 ml tube) Human whole blood sample (˜30-50 cc) 1.5 ml eppendorf tubes Test compound stock solutions (˜25 mM in DMSO or other solvent) Endotoxin-free sodium chloride solution (0.9%) and HBSS Lipopolysaccharide (Sigma; Cat. # L-3012) stock solution at 1 mg/ml in HBSS
# IL-1β ELISA Kit (R & D Systems; Cat # DLB50)
# TNFα ELISA Kit (R & D Systems; Cat # DTA50)
# Whole Blood Assay Experimental Procedure:
# Set incubator or water bath at 30° C. Aliquot 0.25 ml of blood into 1.5 ml eppendorf tubes. Note: be sure to invert the whole blood sample tubes after every two aliquots. Differences in replicates may result if the cells sediment and are not uniformly suspended. Use of a positive displacement pipette will also minimize differences between replicate aliquots.
# Prepare drug dilutions in sterile pyrogen-free saline by serial dilution. A dilution series which brackets the apparent Ki for a test compound determined in an ICE inhibition assay is generally used for the primary compound screen.
# Add 25 μl test compound dilution or vehicle control and gently mix the sample. Then add 5.0 μl LPS solution (250 ng/ml stocked prepared fresh: 5.0 ng/ml final concentration LPS), and mix again. Incubate the tubes at 30° C. in a water bath for 16-18 hr with occasional mixing. Alternatively, the tubes can be placed in a rotator set at 4 rpm for the same incubation period. This assay should be set up in duplicate or triplicate with the following controls: negative control—no LPS; positive control—no test inhibitor; vehicle control—the highest concentration of DMSO or compound solvent used in the experiment. Additional saline is added to all control tubes to normalize volumes for both control and experimental whole blood test samples
# After the incubation period, whole blood samples are centrifuged for 10 minutes at ˜2000 rpm in the microfuge, plasma is transferred to a fresh microfuge tube and centrifuged at 1000×g to pellet residual platelets if necessary. Plasma samples may be stored frozen at −70° C. prior to assay for cytokine levels by ELISA.
# We have used R & D Systems (614 McKinley Place N.E. Minneapolis, Minn. 55413) Quantikine kits for measurement of IL-1β and TNF-α. The assays are performed according to the manufacturer's directions.
# We have observed IL-1β levels of ˜1-5 ng/ml in positive controls among a range of individuals. A 1:200 dilution of plasma for all samples has been sufficient in our experiments for ELISA results to fall on the linear range of the ELISA standard curves. It may be necessary to optimize standard dilutions if you observe differences in the whole blood assay. Nerad, J. L. et al., J. Leukocyte Biol., 52, pp. 687-692 (1992).
Ki (ICE) [nM],"IC50 (IL-1β, human whole blood; Homo sapiens) [nM]","IC50 (IL-1β, human whole blood) [nM]",SMILES,"IC50 ([1]; Homo sapiens, PBMC) [nM]",IC50 [1] [nM]
0.4,1700,–,O=C[C@H](CC(=O)O)NC(=O)[C@@H]1CCCN2C(=O)CC[C@H](NC(=O)c3ccc4ccccc4c3)C(=O)N12 [Compound 407],540,–
0.9,1900,–,O=C[C@H](CC(=O)O)NC(=O)[C@@H]1CCCN2C(=O)CC[C@H](NC(=O)c3ccc4ccccc4n3)C(=O)N12 [Compound 411],540,–
50,1200,–,CCn1nc(C)cc1C(=O)N[C@H]1CCC(=O)N2CCC[C@@H](C(=O)N[C@H](C=O)CC(=O)O)N2C1=O [Compound 422],2200,–
45,4000,–,Cc1cc(C(=O)N[C@H]2CCC(=O)N3CCC[C@@H](C(=O)N[C@H](C=O)CC(=O)O)N3C2=O)no1 [Compound 424],2500,–
0.8,650,–,O=C[C@H](CC(=O)O)NC(=O)[C@@H]1CCCN2C(=O)CC[C@H](NC(=O)c3ccc4cc(O)ccc4c3)C(=O)N12 [Compound 425],650,700
8,8000,–,Nc1ccc(C(=O)N[C@H]2CCC(=O)N3CCC[C@@H](C(=O)N[C@H](C=O)CC(=O)O)N3C2=O)cc1 [Compound 431],> 8000,–
1.6,2000,–,O=C[C@H](CC(=O)O)NC(=O)[C@@H]1CCCN2C(=O)CC[C@H](NC(=O)c3ccc4nn[nH]c4c3)C(=O)N12 [Compound 432],560,–
2.9,1100,–,Cn1c(C(=O)N[C@H]2CCC(=O)N3CCC[C@@H](C(=O)N[C@H](C=O)CC(=O)O)N3C2=O)cc2ccccc21 [Compound 433],1000,1100
12,5000,–,COc1cc(C(=O)N[C@H]2CCC(=O)N3CCC[C@@H](C(=O)N[C@H](C=O)CC(=O)O)N3C2=O)nc2ccccc12 [Compound 437],1800,–
3.7,3200,3400,O=C[C@H](CC(=O)O)NC(=O)[C@@H]1CCCN2C(=O)CC[C@H](NC(=O)c3cccc4cccnc34)C(=O)N12 [Compound 439],2800,–
2.3,2000,–,Nc1cc2ccccc2cc1C(=O)N[C@H]1CCC(=O)N2CCC[C@@H](C(=O)N[C@H](C=O)CC(=O)O)N2C1=O [Compound 440],5000,–
1,4500,–,CN(C)c1ccc(C(=O)N[C@H]2CCC(=O)N3CCC[C@@H](C(=O)N[C@H](C=O)CC(=O)O)N3C2=O)c2ccccc12 [Compound 441],2500,–
3.6,1500,–,O=C[C@H](CC(=O)O)NC(=O)[C@@H]1CCCN2C(=O)CC[C@H](NC(=O)c3ccc(Oc4ccccc4)cc3)C(=O)N12 [Compound 443],2800,–
15,3500,–,O=C[C@H](CC(=O)O)NC(=O)[C@@H]1CCCN2C(=O)CC[C@H](NC(=O)c3c(Cl)cccc3Cl)C(=O)N12 [Compound 444],3500,–
5.8,1500,–,CS(=O)(=O)Nc1ccc(C(=O)N[C@H]2CCC(=O)N3CCC[C@@H](C(=O)N[C@H](C=O)CC(=O)O)N3C2=O)cc1 [Compound 447],2500,–
0.65,1900,1600,O=C[C@H](CC(=O)O)NC(=O)[C@@H]1CCCN2C(=O)CC[C@H](NC(=O)c3cc4ccccc4s3)C(=O)N12 [Compound 453],1300,–

Ki (ICE) [nM],"IC50 (IL-1β, human whole blood; Homo sapiens) [nM]","IC50 (IL-1β, human whole blood) [nM]",SMILES,"IC50 ([1]; Homo sapiens, PBMC) [nM]",IC50 [1] [nM]
6.2,3500,–,O=C[C@H](CC(=O)O)NC(=O)[C@@H]1CCCN2C(=O)CC[C@H](NC(=O)c3ccc(OC(=O)c4ccc(O)cc4)cc3)C(=O)N12 [Compound 457],2000,–
115,2400,–,CS(=O)(=O)c1ccc(C(=O)N[C@H]2CCC(=O)N3CCC[C@@H](C(=O)N[C@H](C=O)CC(=O)O)N3C2=O)cc1 [Compound 460],400,–
3,800,–,Cc1c(Cl)cccc1C(=O)N[C@H]1CCC(=O)N2CCC[C@@H](C(=O)N[C@H](C=O)CC(=O)O)N2C1=O [Compound 465],1000,–
0.8,600,–,Cc1ccc(Cl)cc1C(=O)N[C@H]1CCC(=O)N2CCC[C@@H](C(=O)N[C@H](C=O)CC(=O)O)N2C1=O [Compound 466],1400,–
4.5,2500,–,Cc1nc(-c2ccc(C(F)(F)F)cc2)sc1C(=O)N[C@H]1CCC(=O)N2CCC[C@@H](C(=O)N[C@H](C=O)CC(=O)O)N2C1=O [Compound 468],850,–
1,400,450,Cc1cc2c(cc1C(=O)N[C@H]1CCC(=O)N3CCC[C@@H](C(=O)N[C@H](C=O)CC(=O)O)N3C1=O)OCO2 [Compound 473],1000,–
7,2500,–,Cc1c(O)cccc1C(=O)N[C@H]1CCC(=O)N2CCC[C@@H](C(=O)N[C@H](C=O)CC(=O)O)N2C1=O [Compound 476],1600,–
< 0.2,380,260,Nc1c(Cl)cc(C(=O)N[C@H]2CCC(=O)N3CCC[C@@H](C(=O)N[C@H](C=O)CC(=O)O)N3C2=O)cc1Cl [Compound 482],340,–
1.7,700,–,O=C[C@H](CC(=O)O)NC(=O)[C@@H]1CCCN2C(=O)CC[C@H](NC(=O)c3ccc(NC(=O)c4ccccc4)cc3)C(=O)N12 [Compound 483],900,–
2,900,–,CCC(=O)Nc1ccc(C(=O)N[C@H]2CCC(=O)N3CCC[C@@H](C(=O)N[C@H](C=O)CC(=O)O)N3C2=O)cc1 [Compound 485],900,–
1.5,750,–,CCCC(=O)Nc1ccc(C(=O)N[C@H]2CCC(=O)N3CCC[C@@H](C(=O)N[C@H](C=O)CC(=O)O)N3C2=O)cc1 [Compound 488],940,–
6,15000,–,CNC(=O)Nc1ccc(C(=O)N[C@H]2CCC(=O)N3CCC[C@@H](C(=O)N[C@H](C=O)CC(=O)O)N3C2=O)cc1 [Compound 489],2250,1700
25,800,850,COc1ccc(C(=O)N[C@H]2CCC(=O)N3CCC[C@@H](C(=O)N[C@H](C=O)CC(=O)O)N3C2=O)cc1F [Compound 493],1200,–
15,7000,–,O=C[C@H](CC(=O)O)NC(=O)[C@@H]1CCCN2C(=O)CC[C@H](NC(=O)/C=C/c3ccccc3)C(=O)N12 [Compound 494],1350,1500
16,6000,–,O=C[C@H](CC(=O)O)NC(=O)[C@@H]1CCCN2C(=O)CC[C@H](NC(=O)OCc3ccccc3)C(=O)N12 [Compound 496],1550,1600
